Assay results taken from patent US20170290774A1, “NEUROKININ-1 RECEPTOR ANTAGONIST COMPOSITION FOR TREATMENT OF DISEASES AND CONDITIONS OF THE RESPIRATORY TRACT” (PLUS VITECH, S.L., priority 2014, published 2017).
Several values for one entry are separate records, joined by “and”; a condition that tells them apart may be missing. Equal values may be shown once. Read-outs that look alike come from different tables or passages of the source.

Legend:
[1] = Tissue concentration of aprepitant by HPLC after oral or inhaled administration to rabbits; format: in vivo, New Zealand albino rabbits; conditions: oral, 10 to 100 mg/kg per day
[2] = cited from earlier work
[3] = Tissue concentration of aprepitant by HPLC after oral or inhaled administration to rabbits; format: in vivo, New Zealand albino rabbits; conditions: for concentration at 7 days: New Zealand White (albino), rabbit
Method: Herein, New Zealand albino rabbits (New Zealand White Rabbits) with an initial average weight of approximately 3 kg were used. The rabbits were fed ad libitum and were monitored daily to check that signs of toxicity had not appeared. […] This mixture was administered as an aerosol to the airways of a group of 3 of said rabbits (Group 5) in a dose of 0.05 mg/kg body weight per day, to another group of three rabbits (Group 6) in a dose of 0.1 mg/kg body weight per day, to another group of three rabbits (group 7) in a dose of 0.2 mg/kg body weight per day and to another group of three rabbits (Group 8) in a dose of 0.4 mg/kg body weight per day. […] After seven days of treatment all animals were euthanized and necropsied. […] Samples were taken at the peripheral level of the lung parenchyma, just below the pleural surface. Tissue samples were also taken from the nasal cavity, pharynx, larynx and bronchi. […] The average is the arithmetic average calculated for each row or column of each table. The SD is the standard deviation, calculated for each row or column of each table.

[4] = single oral dose of 125 mg of Emend
[5] = terminal nephropathy with hemodialysis, single dose of 240 mg of Emend
[6] = Group 1, oral 10 mg/kg per day, seven days, individual cases, 10 mg/kg/day
[7] = Group 2, oral 40 mg/kg per day, seven days, individual cases, 40 mg/kg/day
[8] = Group 3, oral 80 mg/kg per day, seven days, individual cases, 80 mg/kg/day
[9] = Group 4, oral 100 mg/kg per day, seven days, individual cases, 100 mg/kg/day
[10] = Group 5, inhalation (aerosol, olive oil) 0.05 mg/kg per day, seven days, individual cases, 0.05 mg/kg/day
[11] = Group 6, inhalation (aerosol, olive oil) 0.1 mg/kg per day, seven days, individual cases, 0.1 mg/kg/day
[12] = Group 7, inhalation (aerosol, olive oil) 0.2 mg/kg per day, seven days, individual cases, 0.2 mg/kg/day
[13] = Group 8, inhalation (aerosol, olive oil) 0.4 mg/kg per day, seven days, individual cases, 0.4 mg/kg/day

SMILES: C[C@@H](OC1OCCN(Cc2nc(=O)[nH][nH]2)C1c1ccc(F)cc1)c1cc(C(F)(F)F)cc(C(F)(F)F)c1 (stereo in doubt) [Aprepitant, 5-([(2R,3S)-2-((R)-1-[3,5-bis(trifluoromethyl)phenyl]ethoxy)-3-(4-fluorophenyl)morpholino]methyl)-1H-1,2,4-triazol-3(2H)-one]
- relationship between dose and concentration in lung tissue [1]: non-linear and not proportional
- effect of mild hepatic insufficiency on pharmacokinetics ([2]; Child-Pugh score of 5 to 6): does not affect to a clinically relevant degree
- oral bioavailability ([2]; Emend capsule of 80 mg): 67%
- oral bioavailability ([2]; Emend capsule of 125 mg): 59%
- linearity of pharmacokinetics ([2]; clinical dose interval): non-linear pharmacokinetics
- AUC0-24 h greater in elderly (≧65 years) than younger adults ([2]; day 1, oral 125 mg Emend): 21%
- Cmax greater in elderly than younger adults ([2]; day 1): 10%
- AUC0-24 h greater in elderly (≧65 years) than younger adults ([2]; day 5, 80 mg once a day): 36%
- Cmax greater in elderly than younger adults ([2]; day 5): 24%
- share of plasma radioactivity ([2]; healthy young adults, over 72 hours after single 100 mg intravenous dose of [C14] prodrug): approximately 19%
- increase in AUC0-∞ greater in proportion to the dose ([2]; healthy young adults, single doses of 80 mg and 125 mg, postprandial): 26%
- metabolites identified in human plasma ([2]; human plasma): 12
- increase of AUC with food ([2]; oral capsule with standard breakfast of approximately 800 Kcal): up to 40%
- Tmax ([2]; oral): approximately 4 hours
- reduction of AUC0-∞ of total aprepitant with respect to healthy patients ([2]; severe renal insufficiency (CrCl<30 ml/min), single dose of 240 mg of Emend): 21%
- reduction of Cmax with respect to healthy patients ([2]; severe renal insufficiency, single dose of 240 mg of Emend): 32%
- Cmax greater in women than men [2, 4]: 16%
- half-life greater in women than men [2, 4]: 25%
- reduction of AUC0-∞ of total aprepitant [2, 5]: 42%
- reduction of Cmax [2, 5]: 32%
- Lung concentration of aprepitant LIPD (right inferior lobe) [3, 6]: 0.9 micrograms of aprepitant per gram of lung tissue and 1.0 micrograms of aprepitant per gram of lung tissue
- Lung concentration of aprepitant LIPI (left inferior lobe) [3, 6]: 1.4 micrograms of aprepitant per gram of lung tissue and 1.1 micrograms of aprepitant per gram of lung tissue
- Lung concentration of aprepitant LMPD (right middle lobe) [3, 6]: 1.4 micrograms of aprepitant per gram of lung tissue and 1.5 micrograms of aprepitant per gram of lung tissue
- Lung concentration of aprepitant LSPD (right superior lobe) [3, 6]: 1.1 micrograms of aprepitant per gram of lung tissue and 0.4 micrograms of aprepitant per gram of lung tissue and 1.2 micrograms of aprepitant per gram of lung tissue
- Lung concentration of aprepitant LSPI (left superior lobe) [3, 6]: 1.0 micrograms of aprepitant per gram of lung tissue and 0.5 micrograms of aprepitant per gram of lung tissue
- Lung concentration of aprepitant LIPD (right inferior lobe) [3, 7]: 3.1 micrograms of aprepitant per gram of lung tissue and 4.2 micrograms of aprepitant per gram of lung tissue
- Lung concentration of aprepitant LIPI (left inferior lobe) [3, 7]: 2.8 micrograms of aprepitant per gram of lung tissue and 4.0 micrograms of aprepitant per gram of lung tissue
- Lung concentration of aprepitant LMPD (right middle lobe) [3, 7]: 2.9 micrograms of aprepitant per gram of lung tissue and 5.1 micrograms of aprepitant per gram of lung tissue
- Lung concentration of aprepitant LSPD (right superior lobe) [3, 7]: 4.1 micrograms of aprepitant per gram of lung tissue and 3.3 micrograms of aprepitant per gram of lung tissue
- Lung concentration of aprepitant LSPI (left superior lobe) [3, 7]: 4.2 micrograms of aprepitant per gram of lung tissue and 3.6 micrograms of aprepitant per gram of lung tissue
- Lung concentration of aprepitant LIPD (right inferior lobe) [3, 8]: 6.3 micrograms of aprepitant per gram of lung tissue and 5.3 micrograms of aprepitant per gram of lung tissue
- Lung concentration of aprepitant LIPI (left inferior lobe) [3, 8]: 3.4 micrograms of aprepitant per gram of lung tissue and 4.3 micrograms of aprepitant per gram of lung tissue
- Lung concentration of aprepitant LMPD (right middle lobe) [3, 8]: 5.5 micrograms of aprepitant per gram of lung tissue and 5.3 micrograms of aprepitant per gram of lung tissue
- Lung concentration of aprepitant LSPD (right superior lobe) [3, 8]: 4.2 micrograms of aprepitant per gram of lung tissue and 3.3 micrograms of aprepitant per gram of lung tissue
- Lung concentration of aprepitant LSPI (left superior lobe) [3, 8]: 5.1 micrograms of aprepitant per gram of lung tissue
- Lung concentration of aprepitant LIPD (right inferior lobe) [3, 9]: 5.9 micrograms of aprepitant per gram of lung tissue and 6.1 micrograms of aprepitant per gram of lung tissue
- Lung concentration of aprepitant LIPI (left inferior lobe) [3, 9]: 4.8 micrograms of aprepitant per gram of lung tissue and 5.1 micrograms of aprepitant per gram of lung tissue
- Lung concentration of aprepitant LMPD (right middle lobe) [3, 9]: 5.1 micrograms of aprepitant per gram of lung tissue and 5.4 micrograms of aprepitant per gram of lung tissue
- Lung concentration of aprepitant LSPD (right superior lobe) [3, 9]: 4.8 micrograms of aprepitant per gram of lung tissue and 4.3 micrograms of aprepitant per gram of lung tissue
- Lung concentration of aprepitant LSPI (left superior lobe) [3, 9]: 5.2 micrograms of aprepitant per gram of lung tissue and 4.5 micrograms of aprepitant per gram of lung tissue
- Lung concentration of aprepitant LIPD (right inferior lobe) [3, 10]: 1.5 micrograms of aprepitant per gram of lung tissue and 1.6 micrograms of aprepitant per gram of lung tissue
- Lung concentration of aprepitant LIPI (left inferior lobe) [3, 10]: 1.5 micrograms of aprepitant per gram of lung tissue and 1.4 micrograms of aprepitant per gram of lung tissue
- Lung concentration of aprepitant LMPD (right middle lobe) [3, 10]: 1.6 micrograms of aprepitant per gram of lung tissue and 1.5 micrograms of aprepitant per gram of lung tissue
- Lung concentration of aprepitant LSPD (right superior lobe) [3, 10]: 1.4 micrograms of aprepitant per gram of lung tissue and 1.5 micrograms of aprepitant per gram of lung tissue
- Lung concentration of aprepitant LSPI (left superior lobe) [3, 10]: 1.5 micrograms of aprepitant per gram of lung tissue
- Lung concentration of aprepitant LMPD (right middle lobe) ([3]; Group 6, inhalation (aerosol, olive oil) 0.1 mg/kg per day, seven days, individual cases): 2.9 micrograms of aprepitant per gram of lung tissue
- Lung concentration of aprepitant LIPD (right inferior lobe) [3, 11]: 2.9 micrograms of aprepitant per gram of lung tissue and 2.8 micrograms of aprepitant per gram of lung tissue
- Lung concentration of aprepitant LIPI (left inferior lobe) [3, 11]: 2.8 micrograms of aprepitant per gram of lung tissue and 2.9 micrograms of aprepitant per gram of lung tissue
- Lung concentration of aprepitant LSPD (right superior lobe) [3, 11]: 2.8 micrograms of aprepitant per gram of lung tissue and 2.9 micrograms of aprepitant per gram of lung tissue
- Lung concentration of aprepitant LSPI (left superior lobe) [3, 11]: 2.7 micrograms of aprepitant per gram of lung tissue and 2.8 micrograms of aprepitant per gram of lung tissue
- Lung concentration of aprepitant LIPD (right inferior lobe) ([3]; Group 7, inhalation (aerosol, olive oil) 0.2 mg/kg per day, seven days, individual cases): 6.0 micrograms of aprepitant per gram of lung tissue
- Lung concentration of aprepitant LIPI (left inferior lobe) [3, 12]: 6.0 micrograms of aprepitant per gram of lung tissue and 5.9 micrograms of aprepitant per gram of lung tissue
- Lung concentration of aprepitant LMPD (right middle lobe) [3, 12]: 6.0 micrograms of aprepitant per gram of lung tissue and 6.1 micrograms of aprepitant per gram of lung tissue
- Lung concentration of aprepitant LSPD (right superior lobe) [3, 12]: 5.9 micrograms of aprepitant per gram of lung tissue and 6.0 micrograms of aprepitant per gram of lung tissue
- Lung concentration of aprepitant LSPI (left superior lobe) [3, 12]: 6.1 micrograms of aprepitant per gram of lung tissue and 5.9 micrograms of aprepitant per gram of lung tissue
- Lung concentration of aprepitant LIPD (right inferior lobe) [3, 13]: 10.4 micrograms of aprepitant per gram of lung tissue and 10.0 micrograms of aprepitant per gram of lung tissue
- Lung concentration of aprepitant LIPI (left inferior lobe) [3, 13]: 10.1 micrograms of aprepitant per gram of lung tissue and 9.9 micrograms of aprepitant per gram of lung tissue
- Lung concentration of aprepitant LMPD (right middle lobe) [3, 13]: 10.1 micrograms of aprepitant per gram of lung tissue and 9.9 micrograms of aprepitant per gram of lung tissue
- Lung concentration of aprepitant LSPD (right superior lobe) [3, 13]: 10.0 micrograms of aprepitant per gram of lung tissue and 9.8 micrograms of aprepitant per gram of lung tissue
- Lung concentration of aprepitant LSPI (left superior lobe) [3, 13]: 10.2 micrograms of aprepitant per gram of lung tissue and 10.0 micrograms of aprepitant per gram of lung tissue
- concentration at 7 days ([3]; in vivo, 0.05 mg/kg/day, Lung concentration of aprepitant, Average ± SD of the five lobes per case): 1400 ng/g
- concentration at 7 days ([3]; in vivo, 0.1 mg/kg/day, Lung concentration of aprepitant, Average ± SD of the five lobes per case): 2800 ng/g
- concentration at 7 days ([3]; in vivo, 0.2 mg/kg/day, Lung concentration of aprepitant, Average ± SD of the five lobes per case): 6020 ng/g
- concentration at 7 days ([3]; in vivo, po, 100 mg/kg/day, Lung concentration of aprepitant, Average ± SD of the five lobes per case): 5240 ng/g
- concentration at 7 days ([3]; lung, left inferior lobe, inhaled, 0.05 mg/kg/day, Lung concentration of aprepitant LIPI (left inferior lobe), Group 5, inhalation (aerosol, olive oil) 0.05 mg/kg per day, seven days, individual cases): 1500 ng/g
- concentration at 7 days ([3]; lung, left inferior lobe, inhaled, 0.05 mg/kg/day, Lung concentration of aprepitant LIPI, Average ± SD of cases, Group 5, inhalation (aerosol, olive oil) 0.05 mg/kg per day, seven days): 1400 ng/g
- concentration at 7 days ([3]; lung, left inferior lobe, inhaled, 0.1 mg/kg/day, Lung concentration of aprepitant LIPI (left inferior lobe), Group 6, inhalation (aerosol, olive oil) 0.1 mg/kg per day, seven days, individual cases): 2800 ng/g
- concentration at 7 days ([3]; lung, left inferior lobe, inhaled, 0.1 mg/kg/day, Lung concentration of aprepitant LIPI, Average ± SD of cases, Group 6, inhalation (aerosol, olive oil) 0.1 mg/kg per day, seven days): 2800 ng/g
- concentration at 7 days ([3]; lung, left inferior lobe, inhaled, 0.2 mg/kg/day, Lung concentration of aprepitant LIPI (left inferior lobe), Group 7, inhalation (aerosol, olive oil) 0.2 mg/kg per day, seven days, individual cases): 5900 ng/g
- concentration at 7 days ([3]; lung, left inferior lobe, po, 100 mg/kg/day, Lung concentration of aprepitant LIPI (left inferior lobe), Group 4, oral 100 mg/kg per day, seven days, individual cases): 6100 ng/g
- concentration at 7 days ([3]; lung, left inferior lobe, po, 100 mg/kg/day, Lung concentration of aprepitant LIPI, Average ± SD of cases, Group 4, oral 100 mg/kg per day, seven days): 5300 ng/g
- concentration at 7 days ([3]; lung, left superior lobe, inhaled, 0.05 mg/kg/day, Lung concentration of aprepitant LSPI (left superior lobe), Group 5, inhalation (aerosol, olive oil) 0.05 mg/kg per day, seven days, individual cases): 1400 ng/g
- concentration at 7 days ([3]; lung, left superior lobe, inhaled, 0.05 mg/kg/day, Lung concentration of aprepitant LSPI, Average ± SD of cases, Group 5, inhalation (aerosol, olive oil) 0.05 mg/kg per day, seven days): 1400 ng/g
- concentration at 7 days ([3]; lung, left superior lobe, inhaled, 0.1 mg/kg/day, Lung concentration of aprepitant LSPI (left superior lobe), Group 6, inhalation (aerosol, olive oil) 0.1 mg/kg per day, seven days, individual cases): 2800 ng/g
